According to patent publication US20240284907A1, “NOVEL DERIVATIVES OF NON-CODED AMINO ACIDS AND THEIR USE AS HERBICIDES” (FortePhest LTD., priority 2021, published 2024):

Legend:
Assay type in all cases: in vivo
[1] = test system: Seeds of Lettuce R. (Super-Jericho); experiment: Filter paper bioassay with lettuce seeds: germination and early plant development, Minimal Effective Concentration (MEC); details: lettuce seeds on filter paper, 0 to 1 mmol/l, visually assessed after 6 days
Procedure, shortened: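 Visual scoring on day 6 of radicle and shoot growth gives the MEC, the lowest dose deviating from control (no germination or malformation). Seeds (lettuce Super-Jericho, 10 per plate) sat on filter paper with 0–1 mmol/l aqueous compound, 48 h dark then 4 days 6/18 dark/light, in at least two repeats.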

[2] = test system: Seeds of Lettuce R. (Super-Jericho); experiment: Filter paper bioassay with lettuce seeds: germination, Fully Effective Concentration (FEC); details: lowest concentration mostly preventing lettuce seed germination, assessed after 6 days
Description: Materials: Seeds of Lettuce R. (Super-Jericho, non-sterilized) were obtained from Ben Shahar Moshe Ltd., 99% purity. The test compounds listed in the Table 2 below were synthetized de novo or purchased from different vendors.
Filter Paper Bioassays with Lettuce seeds: The protocol is following Bertin et al. 2009 and Movellan et al. 2014 with specified modifications as described below.
Seeds were placed on Whatman no. 1 filter paper (Whatman, Middlesex, U.K.) in Petri dishes (10 seeds per plate) with 2.0 ml of aqueous solution of a test material in concentration ranged from 0 (control) to 1 mmol/l were placed in a tray tilted at 45°. The trays were kept in dark for 48 hours and then transferred to the growth chamber with 6/18 dark/light cycle for 4 days. Each experiment was performed at least with two repeats.
The development of plants' radicle and shoots were visually assessed 6 days after the beginning of the test to determine Fully Effective Concentration (FEC) of a test material. In the context of the invention, FED is defined as the lowest concentration level of a test material that mostly preventing seeds germination.

[3] = test system: Romaine lettuce (Lactuca sativa L.) plants; experiment: Post-emergence herbicidal activity on potted Romaine lettuce plants (soil or foliar application); details: lettuce at 2 to 3 leaves, two weeks after treatment
Procedure: The tests were performed on Romaine lettuce (Lactuca sativa L.) plants at the stage 2 to 3 leaves. The plants were grown in mini-pots packed with soil, dimensions 2×2×5 cm, one plant per mini-pot. Test compounds were dissolved in 0.1% aqueous solution water solution of Silwet adjuvant to final concentrations ranging from 0 (Control) to 0.0001%. The test compounds were applied on soil (1 ml per pot) or foliar with airbrush (0.1 ml per pot). Each concentration was tested on 20 plants. Two weeks after the treatment the herbicidal effects of the respective test material were visually evaluated (aboveground part and roots. Then the aboveground part of the plants was neatly cut and weighed (wet weight) to assess the growth inhibition caused by the test compound. The growth inhibition (GI) was calculated as following: […]
Where Mt and Mc are median wet weight of treated and control plants, respectively. In the context of the invention, the herbicidal effect was assessed by concentration of the compound causing more than 85% of Growth Inhibition (GI) or irreversible damage of the plants (Table 3). Herbicidal activity of selected DHAAs is summarized in Table 4 (soil application) and Table 5 (Foliar application).

Molecule	Score (activity score of Minimal Effective Concentration, MEC) [1]	FEC (Fully Effective Concentration) [2] [mM]	Score (test material causing more than 85% of Growth Inhibition or irreversible plant damage) ([3]; soil application)	Score (test material causing more than 85% of Growth Inhibition or irreversible plant damage) ([3]; foliar application)
2,2-difluoro-2-[5-(trifluoromethyl)-1,3-thiazol-2-yl]acetic acid [compound 5710]	Strong (0.01 mM)	0.100	–	–
2,2-difluoro[2-(trifluoromethyl)-1,3-thiazol-5-yl]acetic acid [compound 5700]	Moderate (0.1 mM)	2.000	–	–
2-(2,5-dichlorothiophen-3-yl)-2,2-difluoroacetamide [compound 5636]	Strong (0.01 mM)	0.100	–	–
2-chloro-4-(2-hydrazinylethyl)-1,3-thiazole [compound 5702]	Moderate (0.1 mM)	2.000	–	–
2-oxo-2-(pyridin-2-yl)ethyl(2-chloro-1,3-thiazol-4-yl)(difluoro)acetate [compound 5740]	very strong	0.050	–	–
2-oxo-2-phenylethyl(2-chloro-1,3-thiazol-4-yl)(difluoro)acetate [compound 5741]	very strong	0.050	–	–
3-(2,5-dichlorothiophen-3-yl)-2-oxopropanoic acid [compound 5612]	Strong (0.01 mM)	0.100	–	–
NC(=O)Cc1cc(Cl)sc1Cl [compound 5609, 2-(2,5-dichlorothiophen-3-yl)acetamide]	Strong (0.01 mM)	1.000	–	–
O=C(O)/C=C/c1sc(Cl)nc1Cl [compound 5622, (2E)-3-(2,4-dichloro-1,3-thiazol-5-yl)prop-2-enoic acid]	Moderate (0.1 mM)	1.000	–	–
O=C(O)CNC(=O)C(F)(F)c1cc(Cl)sc1Cl [compound 5644, [2-(2,5-dichlorothiophen-3-yl)(difluoro)acetamido]acetic acid]	Strong (0.01 mM)	1.000	–	–
O=C(O)C(F)(F)c1cccc(Cl)n1 [compound 6667, (6-chloropyridin-2-yl)(difluoro)acetic acid]	Strong (0.01 mM)	–	strong (0.01 to 0.05)	–
(2-bromopyridin-4-yl)acetic acid [compound 678]	Strong (0.01 mM)	–	weak (1.0)	–
(2E)-3-(2-bromopyridin-4-yl)-N-(4-hydroxyphenyl)prop-2-enamide [compound 6610]	Moderate (0.1 mM)	–	moderate (0.5)	–
[6-chloro-5-(trifluoromethyl)pyridin-2-yl](difluoro)acetic acid [compound 6671]	Strong (0.01 mM)	–	strong (0.01 to 0.05)	–
benzyl (6-bromopyridin-2-yl)(difluoro)acetate [compound 6646]	Strong (0.01 mM)	–	strong (0.01 to 0.05)	–
difluoro(6-fluoropyridin-2-yl)acetic acid [compound 6664]	Strong (0.01 mM)	–	strong (0.01 to 0.05)	–
ethyl 2-(2-bromo-1,3-thiazol-4-yl)acetate [compound 5663]	Moderate (0.1 mM)	–	moderate (0.5)	strong (0.01 to 0.05)
